Marks after values point to notes of the source that are not given here.
Tests used:
[1] = system: zebrafish non-alcoholic fatty liver; test: Fat reduction or elimination effect on thioacetamide-induced zebrafish non-alcoholic fatty liver (Oil Red O staining); type: in vivo; conditions: for The total optical density of liver fat: mean ± SE, n = 10; for inhibition at 100 µM / inhibition at 200 µM: Danio rerio, read-out: Inhibition rate of liver steatosis
Procedure: 40 mM stock solution of test compounds 4, 5, 6, 7, 46, 67, 78, 85, 92 and 101 were prepared with DMSO, and stored in a refrigerator at −20° C. The positive control compound S-adenosylmethionine (SAM) was purchased from Aladdin Reagent (Shanghai) Co., Ltd., with the batch number F1523051, which was prepared into a 50 mM stock solution with DMSO. The control compound silymarin was purchased from Shanghai Dibai Biotechnology Co., Ltd., with the batch number EE09, which was prepared into a 40 mM stock solution with DMSO. Thioacetamide was purchased from Sigma-Aldrich, with the batch number BCBV3031, which wasprepared into a 1 M stock solution with DMSO. Oil Red O was purchased from Sigma-Aldrich, with the batch number SLBP5248V. 4% paraformaldehyde was purchased from Dingguo Biotechnology Co., Ltd., with the batch number 773001800. Propylene glycol was purchased from Sinopharm Chemical Reagent Co., Ltd., with the batch number 20170615.
The melanin allele mutant translucent Albino line zebrafish was reproduced in natural paired mating. The fish age was 3 days after fertilization, with 30 fish per experimental group.
The above zebrafish were raised in fish farming water at 28° C. (water quality: 200 mg instant sea salt was added to 1 L of reverse osmosis water, conductivity was 480-510 μS/cm; pH was 6.9-7.2; hardness was 53.7-71.6 mg/L CaCOs), the experimental animal use license number was: SYXK (Zhejiang) 2012-0171. Feeding management met the requirements of international AAALAC certification.
Three days after fertilization, the normal melanin allele mutant translucent Albino strain of zebrafish was randomly selected and placed in a six well plate with 30 fish per well (i.e. each experimental group), and then thioacetamide with the final concentration of 7 mM was used to treat zebrafish for 72 hours to establish the non-alcoholic fatty liver model.
The zebrafish were transferred to a six-well plate, with 30 fish per well (i.e., each experimental group) randomly. Non-alcoholic fatty liver model in zebrafish were induced by thioacetamide. 40 mM test compounds 4, 5, 6, 7, 46, 67, 78, 85, 92 and 101 were quantitatively transferred to a six-well plate, and diluted with water to the corresponding concentration. Test compounds 4, 5, 6 and 7 were formulated into two dose groups with final concentration of 100 μM and 200 μM, respectively; test compound 46 was formulated into a dose group with final concentration of 200 μM; test compounds 67, 78, 85, 92 and 101 were formulated into dose groups with a final concentration of 100 μM; 50 mM positive control SAM was formulated with water to a dose group with final concentration of 50 μM, and a 40 mM positive control silymarin was formulated with water to two concentration dose groups with final concentration of 100 μM and 200 μM. A normal control group (zebrafish treated with fish farming water) and a model control group were set at the same time, and the total volume of each well was 3 mL. Except for the normal control group, the other experimental groups were treated with thioacetamide for 72 hours and stained with Oil Red O. After staining, 10 zebrafish were randomly selected from each experimental group and photographed under a dissecting microscope, NIS-Elements D 3.10 advanced image processing software was used to perform image analysis and collect data, the total optical density (S) of zebrafish liver fat was statistically analyzed, and for the inhibitory effect of each experimental group on liver steatosis of zebrafishwas evaluated by the following formula, the results of statistical analysis were expressed as mean±SE: Inhibition rate of liver steatosis (%)=[S(model control group)−S(test compound group)]/[S(model control group)−S(normal control group)]×100%
Statistical analysis was performed using analysis of variance and Dunnett's T-test, and p<0.05 indicated a significant difference. […]

NASH mice = test: Efficacy on non-alcoholic steatohepatitis (NASH) mice fed high-fat feed; type: in vivo, C57BL/6 mice; conditions: for Liver coefficient (liver weight/body weight) / Liver weight: 28 days; for Liver weight: X ± SD
Procedure: The test compounds were 4 and 7, respectively; the positive control silymarin was purchased from Shanghai Dibai Biotechnology Co., Ltd., with the batch number HH06.
Low-dose group (35 mg/kg) solution preparation: the quantitative test compound was precisely weighed and a certain amount of normal saline was added to prepare the oral suspension solution with the concentration of 3.5 mg/mL. The administration volume was 10 mL/kg.
High-dose group (70 mg/kg) solution preparation: the quantitative test compound was precisely weighed and a certain amount of normal saline was added to prepare the oral suspension solution with the concentration of 7.0 mg/mL. The administration volume was 10 mL/kg.
High-fat feed: basic feed ingredients were corn, flour, imported fish meal, soybean meal, secondary meal, yeast meal, soybean oil, etc. The high-fat feed was prepared from 73.6% basic feed with 10% lard, 10% egg yolk powder, 5% sucrose, 1.2% cholesterol and 0.2% pig bile salt.
Source, species, strain: C57BL/6 mice, provided by Beijing Vital River Laboratory Animal Technology Co., Ltd. Nanjing Branch (experimental animal production license: SCXK (Su) 2016-0003); experimental animal use license: SYXK (Jun) 2012-0049; age: 6-8 weeks at the beginning of dosing; weight: 18-22 g; gender: half male and half female.
After 3 days of adaptive feeding with normal feed, the mice were randomly assigned according to body weight: 8 mice were fed with normal feed and set as normal control (NC); the rest of mice were fed with high-fat feed until the end of the experiment. The mice were weighed and recorded every 3 days. After feeding with high-fat diet for 56 days (8 weeks), blood samples were collected from the orbital vein of mice to detect the blood biochemical indexes to identify whether the modelling was successful.
After successful modeling, the mice in the high-fat feed group were randomly divided into 6 groups with 8 animals in each group, including model group, compound 4 low dose group, compound 4 high dose group, compound 7 low dose group, compound 7 high dose group and silymarin high-dose group. The mice in each group were administered intragastrically according to the animal's body weight every day for 28 consecutive days (4 weeks). At the same time, during the administration period, the mice in each administration group and model group continued to be fed with high-fat feed until the end of the experiment. The normal control group was administered the corresponding volume of normal saline.
On the last day of the experiment, the mice in each group were fasted for 8 hours, blood was taken from the orbit and the serum was separated and then stored at −20° C. After blood collection, the mice were sacrificed and the liver was quickly separated, weighed and stored in a refrigerator at −80° C. Serum samples and liver tissue samples were subjected to determinations of serum triglyceride (TG), serum total cholesterol (TC), serum high-density lipoprotein (HDL-C), serum low-density lipoprotein (LDL-C), serum alanine aminotransferase (ALT), serum aspartate aminotransferase (AST), serum tumor necrosis factor alpha (TNFα), liver triglycerides (TG), liver total cholesterol (TC), liver malondialdehyde (MDA), liver superoxide dismutase (SOD); in addition, some livers of mice in the blank control group, model group, compound 7 low-dose group and silymarin high-dose group were fixed in neutral formaldehyde fixed solution and then HE staining was performed to analyzed the pathological changes of liver tissue.

## COc1cc([C@H]2Oc3cc([C@H]4Oc5cc(O)cc(O)c5C(O)[C@@H]4O)ccc3O[C@@H]2CO)ccc1O (stereo partly drawn) [Compound 5, (2R,3S)-2-{(2R,3R)-3-(4-hydroxy-3-methoxyphenyl)-2-hydroxymethyl-2,3-dihydrobenzo[b][1,4]dioxan-6-yl}chroman-3,4,5,7-tetraol]
[1]; 100 μM
  Inhibition rate of liver steatosis: 85** %
  Therapeutic effect on non-alcoholic fatty liver of zebrafish (in words): significant therapeutic effects
  The total optical density of liver fat: 18496 ± 862 Pixels
  inhibition at 100 µM: 84%
[1]; 200 μM
  Therapeutic effect on zebrafish non-alcoholic fatty liver (in words): significant therapeutic effect
  The total optical density of liver fat: 18452 ± 795 Pixels
  inhibition at 200 µM: 86%

## COc1cc(OC)c2c(c1)OC(c1cc(O)c3c(c1)OC(c1ccc(O)c(OC)c1)C(CO)O3)C(O)C2 (stereo not drawn) [Compound 78, 7-{(3-hydroxy-5,7-dimethoxychroman-2-yl)-2-(4-hydroxy-3-methoxyphenyl)-3-hydroxymethyl-2,3-dihydrobenzo[b][1,4]dioxane}-5-ol]
[1]; 100 μM
  Therapeutic effect on non-alcoholic fatty liver of zebrafish (in words): significant therapeutic effects
  The total optical density of liver fat: 19665 ± 1330 Pixels
  inhibition at 100 µM: 62%

## COc1cc([C@H]2Oc3cc([C@H]4Oc5cc(O)cc(O)c5/C(=N/O)[C@@H]4O)ccc3O[C@@H]2CO)ccc1O [Compound 46, (2R,3S)-3,5,7-trihydroxy-2-{(2R,3R)-3-(4-hydroxy-3-methoxyphenyl)-2-hydroxymethyl-2,3-dihydrobenzo[b][1,4]dioxan-6-yl}chroman-4-one oxime]
[1]; 200 μM
  Therapeutic effect on zebrafish non-alcoholic fatty liver (in words): significant therapeutic effect
  The total optical density of liver fat: 19767 ± 814 Pixels
  inhibition at 200 µM: 60%

## C[S+](CC[C@H](N)C(=O)[O-])C[C@H]1O[C@@H](n2cnc3c(N)ncnc32)[C@H](O)[C@@H]1O (stereo partly drawn) [S-adenosylmethionine, reference compound]
[1]; 50 μM (SAM)
  Inhibition rate of liver steatosis: 89%
  The total optical density of liver fat: 18301 ± 783 Pixels

## COc1cc(OC)c2c(c1)OC(c1cc(O)c3c(c1)OC(c1ccc(O)c(OC)c1)C(CO)O3)C(O)C2O (stereo not drawn) [Compound 92, 2-{8-hydroxy-3-(4-hydroxy-3-methoxyphenyl)-2-hydroxymethyl-2,3-dihydrobenzo[b][1,4]dioxan-6-yl}-5,7-dimethoxychroman-3,4-diol]
[1]; 100 μM
  Therapeutic effect on non-alcoholic fatty liver of zebrafish (in words): significant therapeutic effects
  The total optical density of liver fat: 17836 ± 639 Pixels
  inhibition at 100 µM: 98%

## COc1cc(C2Oc3cc(C4Oc5cc(O)cc(O)c5C(O)C4O)cc(O)c3OC2CO)ccc1O (stereo not drawn) [Compound 4, 2-{8-hydroxy-3-(4-hydroxy-3-methoxyphenyl)-2-hydroxymethyl-2,3-dihydrobenzo[b][1,4]dioxan-6-yl}chroman-3,4,5,7-tetraol]
[1]; 100 μM
  Therapeutic effect on non-alcoholic fatty liver of zebrafish (in words): significant therapeutic effects
  The total optical density of liver fat: 18598 ± 608 Pixels
  inhibition at 100 µM: 83%
[1]; 200 μM
  Therapeutic effect on zebrafish non-alcoholic fatty liver (in words): significant therapeutic effect
  The total optical density of liver fat: 17802 ± 487 Pixels
  inhibition at 200 µM: 99%
NASH mice; 35 mg/kg/day
  TG: 1.21 ± 0.05 mmol/L
NASH mice; 35 mg/kg/day intragastric
  Liver coefficient (liver weight/body weight): 4.43 ± 0.31 %
  Liver weight: 1.39 ± 0.03 g
NASH mice; 70 mg/kg/day
  TG: 1.18 ± 0.06 mmol/L
NASH mice; 70 mg/kg/day intragastric
  Liver coefficient (liver weight/body weight): 4.54 ± 0.33 %
  Liver weight: 1.43 ± 0.03 g
NASH mice; 35 and 70 mg/kg
  Therapeutic effect on non-alcoholic steatohepatitis in mice (in words): significant therapeutic effects
NASH mice; liver, 35 mg/kg/day
  MDA: 2.91 ± 0.42 nmol/mg
  SOD: 18.08 ± 3.90 U/mg
  TC: 1.51 ± 0.06 mmol/L
NASH mice; liver, 70 mg/kg/day
  MDA: 2.80 ± 0.21 nmol/mg
  SOD: 17.42 ± 4.16 U/mg
  TC: 1.51 ± 0.11 mmol/L
NASH mice; serum, 35 mg/kg/day
  ALT: 89.08 ± 18.93 U/L
  AST: 140.13 ± 13.93 U/L
  HDL-C: 0.95 ± 0.33 mmol/L
  LDL-C: 2.55 ± 0.50 mmol/L
  TC: 2.59 ± 0.32 mmol/L
  TG: 1.18 ± 0.02 mmol/L
  TNF-α: 414.20 ± 13.46 ng/L
NASH mice; serum, 70 mg/kg/day
  ALT: 98.29 ± 75.07 U/L
  AST: 120.04 ± 12.55 U/L
  HDL-C: 0.97 ± 0.37 mmol/L
  LDL-C: 2.13 ± 0.54 mmol/L
  TC: 2.58 ± 0.30 mmol/L
  TG: 1.24 ± 0.16 mmol/L
  TNF-α: 415.80 ± 13.54 ng/L

## COc1cc(C2Oc3cc(C4Oc5cc(F)cc(O)c5C(O)C4O)cc(O)c3OC2CO)ccc1O (stereo not drawn) [Compound 101, 7-fluoro-2-{8-hydroxy-3-(4-hydroxy-3-methoxyphenyl)-2-hydroxymethyl-2,3-dihydrobenzo[b][1,4]dioxan-6-yl}chroman-3,4,5-triol]
[1]; 100 μM
  Therapeutic effect on non-alcoholic fatty liver of zebrafish (in words): significant therapeutic effects
  The total optical density of liver fat: 18090 ± 837 Pixels
  inhibition at 100 µM: 93%

## COc1cc([C@H]2Oc3cc([C@H]4Oc5cc(O)cc(O)c5C[C@@H]4O)ccc3O[C@@H]2CO)ccc1O [Compound 6, (2R,3S)-2-{(2R,3R)-3-(4-hydroxy-3-methoxyphenyl)-2-hydroxymethyl-2,3-dihydrobenzo[b][1,4]dioxan-6-yl}chroman-3,5,7-triol]
[1]; 100 μM
  Therapeutic effect on non-alcoholic fatty liver of zebrafish (in words): significant therapeutic effects
  The total optical density of liver fat: 19868 ± 556 Pixels
  inhibition at 100 µM: 58%
[1]; 200 μM
  Therapeutic effect on zebrafish non-alcoholic fatty liver (in words): significant therapeutic effect
  The total optical density of liver fat: 18157 ± 572 Pixels
  inhibition at 200 µM: 92%
